From patent US20080113944A1, “Novel Indole Derivatives” (Novo Nordisk A/S, priority 2004, published 2008)

SMILES | melting point
N#CC(=Cc1ccc2[nH]ccc2c1)S(=O)(=O)c1ccc([N+](=O)[O-])cc1 [Example 2, 3-(1H-indol-5-yl)-2-(4-nitrobenzenesulfonyl)acrylonitrile] | 219 to 221 °C
CS(=O)(=O)C(C#N)=Cc1ccc2[nH]ccc2c1 [Example 3, 3-(1 H-indol-5-yl)-2-methanesulfonylacrylonitrile] | 184 to 185 °C
